Assay results taken from PubChem BioAssay AID248 (DTP/NCI, 2004).
Inconclusive results and toxic doses are left out. Rule as the data show it: active = T/C of 150% or more; inactive = T/C below 125%.

Test system: L1210 leukemia ip in BDF1 mice, survival T/C
Assay: NCI In Vivo Anticancer Drug Screen. Data for tumor model L1210 Leukemia (intraperitoneal) in B6D2F1 (BDF1) mice
Conditions: endpoint: mean survival time, higher = longer survival
Method in brief: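 Survival endpoint. Drug-treated group vs vehicle group, expressed as T divided by C. Tumor passaged by transplantation.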

[1] = dose: 100.0 mg/kg/injection, schedule: Q04DX003 (ip), vehicle: Klucel (hydroxypropylcellulose) (HPC)
[2] = dose: 200.0 mg/kg/injection, schedule: Q04DX003 (ip), vehicle: Klucel (hydroxypropylcellulose) (HPC)
[3] = dose: 400.0 mg/kg/injection, schedule: Q04DX003 (ip), vehicle: Klucel (hydroxypropylcellulose) (HPC)
[4] = dose: 100.0 mg/kg/injection, schedule: Q01DX009 (ip), vehicle: saline
[5] = dose: 200.0 mg/kg/injection, schedule: Q01DX009 (ip), vehicle: saline
[6] = dose: 400.0 mg/kg/injection, schedule: Q01DX009 (ip), vehicle: saline
[7] = dose: 100.0 mg/kg/injection, schedule: Q04DX003 (ip), vehicle: saline
[8] = dose: 200.0 mg/kg/injection, schedule: Q04DX003 (ip), vehicle: saline
[9] = dose: 400.0 mg/kg/injection, schedule: Q04DX003 (ip), vehicle: saline

Measured: T/C

COC(=O)c1ccc(SC(=O)N(C)C)cc1
inactive: [1] 91 % of control | [2] 96 % of control | [3] 91 % of control

COc1cc(C(=O)Nc2ccccc2)cc(OC)c1OC
inactive: dose: 100.0 mg/kg/injection, schedule: Q04DX002 (ip), vehicle: saline with Tween-80 102 % of control | dose: 200.0 mg/kg/injection, schedule: Q04DX002 (ip), vehicle: saline with Tween-80 98 % of control | dose: 400.0 mg/kg/injection, schedule: Q04DX002 (ip), vehicle: saline with Tween-80 95 % of control

O=S(=O)(O)CNc1ccccc1
inactive: [4] 93 % of control | [5] 93 % of control | [6] 95 % of control

CC12C=CC3(CCC4C(C)(C)C(O)C(=O)CC4(C)C3CC1=O)C2 (stereo not drawn)
inactive: dose: 100.0 mg/kg/injection, schedule: Q01DX009 (ip), vehicle: Klucel (hydroxypropylcellulose) (HPC) 105 % of control | [1] 101 % of control | dose: 200.0 mg/kg/injection, schedule: Q01DX009 (ip), vehicle: Klucel (hydroxypropylcellulose) (HPC) 97 % of control | [2] 101 % of control | dose: 400.0 mg/kg/injection, schedule: Q01DX009 (ip), vehicle: Klucel (hydroxypropylcellulose) (HPC) 107 % of control | [3] 98 % of control

C[N+](C)(CCC#N)Cc1ccc(C[N+](C)(C)CCC#N)cc1
inactive: dose: 5.0 mg/kg/injection, schedule: Q01DX001 (ip), vehicle: saline 90 % of control | dose: 10.0 mg/kg/injection, schedule: Q01DX001 (ip), vehicle: saline 95 % of control | dose: 20.0 mg/kg/injection, schedule: Q01DX001 (ip), vehicle: saline 95 % of control

CN1CC(COC(=O)Cc2c[nH]c3ccccc23)C=C2c3cccc4[nH]cc(c34)CC21 (stereo not drawn)
inactive: dose: 25.0 mg/kg/injection, schedule: Q04DX003 (ip), vehicle: alcohol 98 % of control | dose: 50.0 mg/kg/injection, schedule: Q04DX003 (ip), vehicle: alcohol 96 % of control | dose: 100.0 mg/kg/injection, schedule: Q04DX003 (ip), vehicle: alcohol 102 % of control | dose: 200.0 mg/kg/injection, schedule: Q04DX003 (ip), vehicle: alcohol 96 % of control | dose: 400.0 mg/kg/injection, schedule: Q04DX003 (ip), vehicle: alcohol 96 % of control

CCC(CO)NC(=O)C(O)C(O)C(O)C(O)CO (stereo not drawn)
inactive: [7] 94 % of control | [8] 97 % of control | [9] 94 % of control

S=C=NCc1cccc(CN=C=S)c1
inactive: dose: 6.25 mg/kg/injection, schedule: Q01DX009 (ip), vehicle: saline with Tween-80 103 % of control

CCC(CC)(CC)c1ccc2ccccc2c1
inactive: dose: 100.0 mg/kg/injection, schedule: Q01DX001 (ip), vehicle: saline 98 % of control | dose: 200.0 mg/kg/injection, schedule: Q01DX001 (ip), vehicle: saline 96 % of control | dose: 400.0 mg/kg/injection, schedule: Q01DX001 (ip), vehicle: saline 106 % of control

O=C(Cl)c1ccc([N+](=O)[O-])cc1
inactive: dose: 100.0 mg/kg/injection, schedule: Q04DX003 (ip), vehicle: saline with Tween-80 102 % of control | dose: 200.0 mg/kg/injection, schedule: Q04DX003 (ip), vehicle: saline with Tween-80 101 % of control

O=CN(Cc1cnccn1)Cc1cnccn1
inactive: [4] 96 % of control | [7] 93 % of control | [5] 98 % of control | [8] 96 % of control | [6] 94 % of control | [9] 96 % of control
